Measured values published in patent EP4772505A1, “COMPOUND FOR DEGRADING ANDROGEN RECEPTOR AND MEDICAL USE THEREOF” (Ubix Therapeutics, Inc., priority 2023, dated 2025).
Read-outs that look alike come from different tables or passages of the source.

Target: T1, Androgen Receptor (AR) (Homo sapiens, UniProt P10275)
T1 sequence (P10275 1-920): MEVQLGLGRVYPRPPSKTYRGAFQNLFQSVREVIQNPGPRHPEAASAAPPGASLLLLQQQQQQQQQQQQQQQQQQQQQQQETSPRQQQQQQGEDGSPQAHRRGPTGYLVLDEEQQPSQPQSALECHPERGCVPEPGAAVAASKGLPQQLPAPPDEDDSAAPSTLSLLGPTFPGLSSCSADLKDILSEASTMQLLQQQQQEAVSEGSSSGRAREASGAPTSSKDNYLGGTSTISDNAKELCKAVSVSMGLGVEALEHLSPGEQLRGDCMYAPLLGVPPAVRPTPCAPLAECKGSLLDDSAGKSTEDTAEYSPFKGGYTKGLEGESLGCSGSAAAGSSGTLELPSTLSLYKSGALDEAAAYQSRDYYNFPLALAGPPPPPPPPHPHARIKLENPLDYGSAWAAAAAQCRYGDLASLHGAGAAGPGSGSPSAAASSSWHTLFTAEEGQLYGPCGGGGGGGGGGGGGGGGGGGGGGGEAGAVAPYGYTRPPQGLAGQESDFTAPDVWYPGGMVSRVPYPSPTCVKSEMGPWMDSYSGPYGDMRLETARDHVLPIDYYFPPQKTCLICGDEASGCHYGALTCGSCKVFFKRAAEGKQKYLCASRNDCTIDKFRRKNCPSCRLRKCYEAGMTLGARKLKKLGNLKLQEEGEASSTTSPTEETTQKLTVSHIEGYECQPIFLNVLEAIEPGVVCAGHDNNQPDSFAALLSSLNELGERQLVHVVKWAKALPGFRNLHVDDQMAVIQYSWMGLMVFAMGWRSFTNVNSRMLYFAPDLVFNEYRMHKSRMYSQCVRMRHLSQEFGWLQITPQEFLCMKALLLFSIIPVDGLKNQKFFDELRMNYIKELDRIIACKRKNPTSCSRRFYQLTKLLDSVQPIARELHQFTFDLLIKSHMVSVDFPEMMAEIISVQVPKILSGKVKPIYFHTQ
Assay: Measurement of AR protein degradation in VCaP cells by Western blotting
Assay type: cell-based
Set-up: endogenous in cells; host or cells: VCaP
Settings: read-out: AR degradation in VCaP cells (%)
Protocol: The amount of AR protein present in LNCaP or VCaP cells was measured after treating them with the synthesized compound. The amount of AR protein was measured using Western blotting. The protocol for the experiments using LNCaP or VCaP cells was as follows.
[Culture] LNCaP cells were resuspended in RPMI1640 medium + HEPES (Hyclone, SH30255.01), 10% FBS (Hyclone, SV30207.02), and 1% Penicillin-streptomycin (Welgene, LS 202-02). 3 x 10^5 cells/mL were seeded in 12-well plates (1 mL per well) and cultured for 3 days. VCaP cells were resuspended in IMDM MEDIUM (Hyclone, SH30228.01), 20% FBS (Hyclone, SV30207.02), and 1% Penicillin-streptomycin (Welgene, LS 202-02), seeded at 9 x 10^5/mL in 1 mL per 12-well plate, and cultured for 3 days.
[Compound Treatment] 10 µL of 100x stock (e.g., 0.1, 1, 10 µM) compound solution at the final compound treatment concentration (e.g., 0.001, 0.01, 0.1 µM) was added to each well in 1 mL media, and cells were harvested after 20 hours. For DC50 measurement, 100x stock (0.01, 0.1, 1, 10, 100, 1000 µM) compound solutions at the final compound treatment concentration (0.0001, 0.001, 0.01, 0.1, 1, 10 µM) were used.
[Cell lysis] The cell pellet was suspended using 1% SDS lysis buffer (50 mM Tris, 1 mM EDTA, 1% SDS, pH 8.0, 0.5 mM PMSF, 1x Protease/Phosphatase inhibitor Cocktail (Cell Signaling Technology, 5872S)), and sonication (70% AMP, 10 cycles (30 sec ON/59 sec OFF)) was performed. After centrifugation at 4°C and 20,000 g for 20 minutes, the cell lysate was obtained and transferred to a new tube.
[Protein Quantification] A BCA protein assay (SMART™ BCA Protein Assay Kit, iNtRON Biotechnology, 21071) was performed using a 96-well microplate. 5 µL of cell lysate and 5 µL of 1% SDS lysis buffer were added to each well of the 96-well plate, followed by an additional 200 µL of BCA reagent (Reagent A: Reagent B = 50:1). The wells were incubated at 37°C for 30 minutes and cooled to room temperature for 10 minutes. After shaking for 10 seconds, the absorbance was measured at a wavelength of 562 nm. The unknown protein concentration was determined using a BSA standard curve (0, 0.125, 0.25, 0.5, 1, 2 mg/mL). Western blotting samples were prepared by mixing cell lysate, 1% SDS lysis buffer, 4x NuPAGE™ LDS Sample buffer (Invitrogen, NP0008), and 10X NuPAGE™ Sample Reducing Agent (Invitrogen, NP0009) and boiling at 70°C for 10 minutes.
[Electrophoresis] 10 µg of protein sample was loaded into each well of a NuPAGE™ 4 to 12%, Bis-Tris, 1.0 mm Mini Protein Gel, 15-well, 17-well, or 26-well (Invitrogen, NP0323BOX, NP0329BOX, or WG1403BOX) and electrophoresed for 40 minutes using NuPAGE™MES SDS Running Buffer (Invitrogen, NP0002) at 200 V (constant V).
[Transfer] Transfer was performed for 15 or 18 minutes using the electrophoresed gel and the Trans-Blot® Turbo™ Transfer Starter System (Bio-RAD, #17001918, Mini Nitrocellulose) at 1.3 A (constant A) and 25 V (limit V). To confirm protein transfer, 15 mL of Ponceau S solution (Sigma, P7170-1L) was used to stain for 1 minute, and then washed to check the degree of transfer.
[Blocking] The membrane for AR and GAPDH detection was blocked with 5% skim milk/0.2% TBST (Skim milk: BD, 232100/ 20X TBS: Biosesang, TR2008-100-00/ 10% Tween 20 Solution: Bio-RAD, #161-0781) for 45 minutes.
[Antibodies and Detection] Primary AR antibody (Androgen Receptor: CST, 5153S) was mixed with 5% skim milk/0.2% TBST at a ratio of 1:1,000 and reacted at room temperature for 3 hours or at 4°C overnight. Primary GAPDH antibody (CST, 2118S) was mixed with 5% skim milk/0.2% TBST at a ratio of 1:2,000 and reacted at room temperature for 3 hours or at 4°C overnight. Afterwards, TBST (0.2% Tween 20) was used for washing three times every 5 minutes. Secondary antibody to AR antibody, Anti-rabbit IgG, HRP-linked Antibody (CST, 7074S), was mixed with 5% skim milk/0.2% TBST at a ratio of 1:5,000 and reacted at room temperature for 45 minutes. […]

Dmax at 0.01 µM (10 nM compound, 20 hours, VCaP cells) [%] | Dmax at 0.1 µM (100 nM compound, 20 hours, VCaP cells) [%] | Structure (SMILES) | Dmax at 0.01 µM (VCaP, 20 h) [%] | Dmax at 0.1 µM (VCaP, 20 h) [%]
 |  | N#Cc1ccc(N2CCC(C(=O)Nc3ccc(OC4CCN(CC5CCN(c6ccc(NC7CCC(=O)NC7=O)cc6F)CC5)CC4)nn3)CC2)cc1C(F)(F)F (stereo not shown) [Example 7, 1-(4-cyano-3-(trifluoromethyl)phenyl)-N-(6-((1-((1-(4-((2,6-dioxopiperidin-3-yl)amino)-2-fluorophenyl)piperidin-4-yl)methyl)piperidin-4-yl)oxy)pyridazin-3-yl)piperidine-4-carboxamide] | 94 | 100
95 | 100 | COc1cc(N2CCC(C(=O)Nc3ccc(OC4CCN(CC5CCN(c6ccc(NC7CCC(=O)NC7=O)cc6F)CC5)CC4)cn3)CC2)ccc1C#N (stereo not shown) [Example 13, 1-(4-cyano-3-methoxyphenyl)-N-(5-((1-((1-(4-((2,6-dioxopiperidin-3-yl)amino)-2-fluorophenyl)piperidin-4-yl)methyl)piperidin-4-yl)oxy)pyridin-2-yl)piperidine-4-carboxamide] |  | 
